Where a name gives a salt, the structure may show the parent alone.
Legend:
Male Balb/cJ mice = assay: Lung neutrophilia induced by bacterial lipopolysaccharide; type: in vivo; settings: 24 hours after LPS
Procedure: Male Balb/cJ mice (Iffa Credo, Lyon, France) weighing 25 g were randomly grouped in three groups: test, positive and negative control (10 animals per each group). Vehicle, beclomethasone dipropionate or test substance were applied intranasally (i.n.) to Balb/cJ mice. Thirty minutes later, 60 μl of bacterial lipopolysaccharide (LPS), dissolved in PBS at the concentration of 167 μg/ml, was given i.n. to all groups except the negative control group, which received the same volume of PBS. Animals were sacrificed after 24 hours and bronchoalveolar lavage fluid (BALF) collected for determination of neutrophils and […] and TNF-α concentration. Cytokines were measured using sandwich ELISA (R&D Systems). Statistical analysis was performed using GraphPad prism software, one-way ANOVA Turkey Kramer Multiple comparison test.

[1] = target: T1, human glucocorticoid receptor (Homo sapiens, UniProt P04150); assay: Assay of binding to human glucocorticoid receptor ([3H]dexamethasone displacement in transfected COS-1 cells); settings: 24 nM [3H]dexamethasone, COS-1 cells transfected with human GR alpha
T1 construct: expressed in transfected cells; host or cells: COS-1 cells, transient transfection with pcDNA3.1 Hygro(+) carrying the cloned cDNA
T1 sequence (P04150 1-777): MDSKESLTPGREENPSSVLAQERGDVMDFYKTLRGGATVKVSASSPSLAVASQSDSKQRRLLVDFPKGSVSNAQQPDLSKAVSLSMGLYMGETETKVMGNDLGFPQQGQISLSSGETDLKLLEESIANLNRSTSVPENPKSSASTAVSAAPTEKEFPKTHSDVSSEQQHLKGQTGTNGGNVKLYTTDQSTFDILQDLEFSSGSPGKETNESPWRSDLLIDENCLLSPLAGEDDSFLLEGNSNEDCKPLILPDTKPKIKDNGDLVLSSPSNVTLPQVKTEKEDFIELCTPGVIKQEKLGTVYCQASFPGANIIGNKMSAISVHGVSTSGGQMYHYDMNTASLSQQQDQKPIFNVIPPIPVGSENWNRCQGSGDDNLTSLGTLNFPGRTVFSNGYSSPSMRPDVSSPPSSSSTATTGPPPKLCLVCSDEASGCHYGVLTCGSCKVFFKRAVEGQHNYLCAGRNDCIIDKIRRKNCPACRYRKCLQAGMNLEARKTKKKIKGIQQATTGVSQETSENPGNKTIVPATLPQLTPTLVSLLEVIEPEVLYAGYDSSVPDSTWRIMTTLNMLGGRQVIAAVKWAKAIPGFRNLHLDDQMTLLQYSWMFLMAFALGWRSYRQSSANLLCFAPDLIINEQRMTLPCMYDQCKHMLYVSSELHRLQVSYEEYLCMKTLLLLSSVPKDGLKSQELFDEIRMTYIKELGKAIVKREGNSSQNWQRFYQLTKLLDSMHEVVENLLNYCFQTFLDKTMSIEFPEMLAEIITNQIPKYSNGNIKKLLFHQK
Procedure: The cells were incubated at 37° C. in an atmosphere with 5% CO2 and after 5 hours the same volume of 20% FBS/DMEM was added.

[2] = system: Mouse T-cell hybridoma 13; assay: Inhibition of mouse T-cell hybridoma 13 proliferation as a result of apoptosis induction; type: cell-based; settings: for IC50: Mus musculus, T-cell, [3H]thymidine incorporation, overnight incubation; for inhibition of T-cell hybridoma 13 proliferation: in the concentrations from 1 μM to 1 nM
Procedure: Triplicates of test steroid dilution in RPMI medium (Institute of Immunology, Zagreb) with 10% FBS were added to a 96 well plate. […] Then 1 μCi of [^3H]thymidine (Pharmacia, Piscataway, N.J. USA) was added and the mixture was incubated for an additional 3 hours. The cells were harvested by applying a vacuum over GF/C filter (Packard). Onto each well, 30 μl of Microscynt O scintillation liquid (Packard) was added and the incorporated radioactivity was measured on a β-scintillation counter (Packard).

[3] = system: interleukin 4, interleukin 5 and interferon γ production; assay: Inhibition of interleukin 4, interleukin 5 and interferon γ production by concanavalin-A induced murine splenocytes; type: cell-based, Balb/C mice; settings: in concentrations from 1 μM to 1 nM; concanavalin-A stimulated splenocytes, 72 hours
Source text: Splenocytes were isolated from the spleen of Balb/C mice sacrificed by thiopental injection (Pliva, Zagreb, Croatia). Spleens were chopped and mononuclear cells separated on Histopaque 1083 (Sigma Diagnostics, St. Louis, Mo. USA Cat. No 1083-1). Into a 96-well plate, compounds diluted in RPMI medium (Institute of Immunology, Zagreb, Croatia) were pipetted with 10% foetal bovine serum (Biowhittaker) and cells (200000 per well) in the same medium, and concanavalin-A stimulator (Sigma 2002-2003 cat. No C5275) at a final concentration of […] were added. The positive control, in place of the dilution of compounds, consisted of RPMI medium with 10% foetal bovine serum and concanavalin-A in the same concentration of. Cells were incubated for 72 hours at 37° C., 95% humidity and in an atmosphere with 5% CO2. Until determination of cytokines, the cells were frozen at −70° C.
Cytokines interleukin 4, interleukin 5 and interferon γ were determined by the specific ELISA method, according to manufacturer's recommendations (R&D).
Inhibition (as percentage) was calculated using the following formula:
% inh=(1−[concentration of cytokines in sample]/[concentration of cytokines in positive control])*100

Male Sprague-Dawley rats = assay: Croton oil induced ear edema in male Sprague-Dawley rats; type: in vivo; settings: applied topically once, n=8
Procedure: Test and reference substances, as well as vehicle (acetone), were administered topically to the inner and the outer surface of the right ear of each animal with an automatic pipette, in a volume of 60 μL/ear (30 μL/surface), thirty minutes before the croton oil challenge. Test substances were administered in the doses of 2 or 5 mg/ear/60 μL of acetone. Dexamethasone was administered in the dose of 1 mg/ear/60 μL of acetone. Thirty minutes later, 20% croton oil emulsion in acetone was applied topically to the inner and the outer surface of the right ear of each animal with an automatic pipette, in a volume of 60 μL/ear (30 μL/surface). Five hours after the challenge, animals were euthanized by asphyxiation in 100% CO2 atmosphere. For assessing the auricular edema, 8 mm discs were cut out of left and right auricular pinna and weighed. The degree of edema was calculated by subtracting the weight of 8 mm disc of the untreated ear from that of the treated contralateral ear.

Sprague-Dawley rats = assay: Subcutaneous sponge implantation model; settings: seven days after implantation; for thymus weight: vs vehicle
Procedure: In this model, local inflammation was followed by determination of newly formed granulation tissue together with determination of compound effects on plasma corticosterone concentration and thymus weight in Sprague-Dawley rats. Sprague-Dawley rats were purchased from Iffa Credo, Lyon, France and 10 weeks old male rats were used. […] All substances were dissolved in ethanol, applied onto sterile sponges and allowed to dry in the laminar flow cabinet prior to the sponge implantation.
On day 0, animals were anaesthetized by inhalation of Isoflurane (Abbott Laboratories Ltd., USA) and 5% oxygen, delivered in an anesthesia induction chamber (Stoelting Co., USA). Gas scavenging was provided using the Fluovac 240V system (International Market Supply, England). Anesthesia was maintained using a gas anesthesia mask (Stoelting Co., USA) and pedal reflex response where checked at intervals. The implantation area was shaved and subsequently disinfected using Pursept solution (MERZ Hygiene, Germany). Using strict aseptic procedure, two 1 cm long skin incisions were made just below the left and right regio scapularis. Small subcutaneous pockets were made on the left side of the left wound and the right side of the right wound using blunt forceps. In all animals, sponges with vehicle or dissolved substance applied were inserted on the left side and non-treated ones on the right side. Skin was closed with sutures and disinfected with Pursept solution. On day 7 rats were anaesthetized by intraperitoneal administration of Thiopental (PLIVA; 0.5 mL/100g body weight) and exanguinated by puncturing A. carolis com.
Blood was collected into Vacutainer tubes (Becton Dickinson, USA) for plasma corticosterone concentration analysis. Corticosterone levels in plasma were measured using R&D Systems kit for quantitative determination of corticosterone. Competitive ELISA was performed with alkaline phosphatase conjugated corticosterone as competitor. Samples were incubated for 2 hours, and after successive washing, substrate was added. After 1 h absorbance was measured on 405 mm. OD values are inversely correlated with increasing corticosterone concentrations. Corticosterone concentrations were calculated using calibration curve generated with corticosterone standard concentration dilutions. For assessing the thymus weight, thymuses were extirpated and weighed using the analytical balance. The reduction of thymus size in treated animals was presented as a percentage of that in control rats (0%).
For assessing the newly formed granulation tissue, sponges were carefully excised and each sponge perforated with sterile surgical sewing suture to keep it on the top of the Falcon tube during centrifugation. Tubes were centrifuged (1000 rpm per 10 minutes). […]

Male Balb/C mice = assay: Model of lung eosinophilia in mice (OVA sensitised and challenged)
Procedure: Male Balb/C mice with a body weight of 20-25 g were randomly divided into groups, and sensitised by an i.p. injection of ovalbumin (OVA, Sigma, St. Louis, Mo. USA) on day zero and day fourteen. On the twentieth day, the mice were subjected to a challenge test by i.n. (intranasal) application of OVA (positive control or test groups) or PBS (negative control). 48 hours after i.n. application of OVA, the animals were anaesthetized and the lungs were rinsed with 1 mL of PBS. The cells were separated on Cytospin 3 cytocentrifuge (Shandon). The cells were stained in Diff-Quick (Dade) and the percentage of eosinophils was determined by differential counting of at least 100 cells.
Beclomethasone (Pliva d.d.) were used as a standard substances, with positive and negative control. The compounds were administered daily i.n. or i.p. in different doses 2 days before the challenge test and up to the completion of the test.
Corticosterone levels were determined in plasma from each animal using a kit for determination of corticosterone (R&D systems).

[4] = 4 mg/kg i.n., vs positive control

CCC(=O)OCC(=O)[C@@]1(OC(=O)CC)[C@@H](C)C[C@H]2[C@@H]3CCC4=CC(=O)C=C[C@]4(C)[C@@]3(Cl)[C@@H](O)C[C@@]21C [Beclometbasone dipropionate, beclomethasone dipropionate, reference compound]
concentration of IL-6 in BALF (Male Balb/cJ mice; 2 mg/kg i.n.): non-significantly decreased
concentration of TNF-α in BALF (Male Balb/cJ mice; 2 mg/kg i.n.): non-significantly decreased
neutrophils in BALF (Male Balb/cJ mice; 2 mg/kg i.n.): non-significantly decreased

CC[C@H]1OC(=O)[C@H](C)[C@@H](O)[C@H](C)[C@@H](O)[C@](C)(O)C[C@@H](C)CN(CCCNCCC(=O)O[C@]2(C(=O)OC)[C@H](C)CC3C4CCC5=CC(=O)C=C[C@]5(C)[C@@]4(F)[C@@H](O)C[C@@]32C)[C@H](C)[C@@H](O)[C@]1(C)O (stereo partly drawn) [Compound 7]
affinity for the glucocorticoid receptor (displacement of radioactive dexamethasone) [1]: have affinity for the glucocorticoid receptor
IC50 [2]: 464 nM
inhibition of T-cell hybridoma 13 proliferation [2]: exhibit inhibition

CC[C@H]1OC(=O)[C@H](C)[C@@H](O)[C@H](C)[C@@H](O)[C@](C)(O)C[C@@H](C)CN(CCCNCCC(=O)O[C@]2(C(=O)OC)[C@H](C)CC3C4C[C@H](F)C5=CC(=O)C=C[C@]5(C)C4[C@@H](O)C[C@@]32C)[C@H](C)[C@@H](O)[C@]1(C)O (stereo partly drawn) [Compound 9]
IC50 [2]: 303 nM
inhibition of T-cell hybridoma 13 proliferation [2]: exhibit inhibition

CC[C@H]1OC(=O)[C@H](C)[C@@H](O)[C@H](C)[C@@H](O)[C@](C)(O)C[C@@H](C)CN(CCCNCCC(=O)O[C@]2(C(=O)OC)[C@H](C)CC3C4C[C@H](F)C5=CC(=O)C=C[C@]5(C)[C@@]4(F)[C@@H](O)C[C@@]32C)[C@H](C)[C@@H](O)[C@]1(C)O (stereo partly drawn) [Compound 10 phosphate salt]
concentration of IL-6 in BALF (Male Balb/cJ mice; [4]): statistically significantly decreased
concentration of TNF-α in BALF (Male Balb/cJ mice; [4]): statistically significantly decreased
neutrophils in BALF (Male Balb/cJ mice; [4]): statistically significantly decreased

CC[C@H]1OC(=O)[C@H](C)[C@@H](O)[C@H](C)[C@@H](O)[C@](C)(O)C[C@@H](C)CN(CCCNCCC(=O)O[C@]2(C(=O)OC)[C@H](C)CC3C4C[C@H](F)C5=CC(=O)C=C[C@]5(C)[C@@]4(F)[C@@H](O)C[C@@]32C)[C@H](C)[C@@H](O)[C@]1(C)O (stereo partly drawn) [Compound 10]
affinity for the glucocorticoid receptor (displacement of radioactive dexamethasone) [1]: have affinity for the glucocorticoid receptor
IC50 [2]: 41.7 nM
inhibition of T-cell hybridoma 13 proliferation [2]: exhibit inhibition
inhibition of the production of cytokines [3]: inhibits the production of cytokines
reduction of ear edema (Male Sprague-Dawley rats; 2 mg/ear): 51.58%
reduction of ear edema (Male Sprague-Dawley rats; 5 mg/ear): 85.53%
granulation tissue formation (Sprague-Dawley rats; 10 mg/sponge, vs non-treated and vehicle sponges): significantly reduced
number of eosinophils in the lung rinse with respect to positive control (Male Balb/C mice; t-test, p<0.05): statistically significantly reduced

CC[C@H]1OC(=O)[C@H](C)[C@@H](O)[C@H](C)[C@@H](O)[C@](C)(O)C[C@@H](C)CN(CCCNCCC(=O)O[C@]2(C(=O)OC)CCC3C4C[C@H](C)C5=CC(=O)C=C[C@]5(C)C4[C@@H](O)C[C@@]32C)[C@H](C)[C@@H](O)[C@]1(C)O (stereo partly drawn) [Compound 13]
IC50 [2]: 287 nM

CC[C@H]1OC(=O)[C@H](C)[C@@H](O)[C@H](C)[C@@H](O)[C@](C)(O)C[C@@H](C)CN(CCCNC(=O)CCCCCCCCCCCNCCC(=O)O[C@]2(C(=O)OC)[C@H](C)CC3C4C[C@H](F)C5=CC(=O)C=C[C@]5(C)[C@@]4(F)[C@@H](O)C[C@@]32C)[C@H](C)[C@@H](O)[C@]1(C)O (stereo partly drawn) [Compound 14]
IC50 [2]: 455 nM

CCOC(=O)[C@@]1(OC(=O)CCNCCCN2C[C@H](C)C[C@@](C)(O)[C@H](O)[C@@H](C)[C@H](O)[C@@H](C)C(=O)O[C@H](CC)[C@@](C)(O)[C@H](O)[C@H]2C)[C@H](C)CC2C3C[C@H](F)C4=CC(=O)C=C[C@]4(C)[C@@]3(F)[C@@H](O)C[C@@]21C (stereo partly drawn) [Compound 16]
IC50 [2]: 112 nM

CC[C@H]1OC(=O)[C@H](C)[C@@H](O)[C@H](C)[C@@H](O)[C@](C)(O)C[C@@H](C)CN(CCCCNCCC(=O)O[C@]2(C(=O)OC)[C@H](C)CC3C4C[C@H](F)C5=CC(=O)C=C[C@]5(C)[C@@]4(F)[C@@H](O)C[C@@]32C)[C@H](C)[C@@H](O)[C@]1(C)O (stereo partly drawn) [Compound 17]
IC50 [2]: 41.6 nM
reduction of ear edema (Male Sprague-Dawley rats; 5 mg/ear): 76.59%

CC[C@H]1OC(=O)[C@H](C)[C@@H](O)[C@H](C)[C@@H](O)[C@](C)(O)C[C@@H](C)CN(CCCCCCNCCC(=O)O[C@]2(C(=O)OC)[C@H](C)CC3C4C[C@H](F)C5=CC(=O)C=C[C@]5(C)[C@@]4(F)[C@@H](O)C[C@@]32C)[C@H](C)[C@@H](O)[C@]1(C)O (stereo partly drawn) [Compound 18]
IC50 [2]: 474 nM

C[C@@H]1C[C@H]2[C@@H]3CCC4=CC(=O)C=C[C@]4(C)[C@@]3(F)[C@@H](O)C[C@]2(C)[C@@]1(O)C(=O)CO [Dexamethasone, reference compound]
reduction of ear edema (Male Sprague-Dawley rats; 1 mg/ear): 85.77%

C[C@H]1C[C@H]2[C@@H]3CCC4=CC(=O)C=C[C@]4(C)[C@@]3(Cl)[C@@H](O)C[C@]2(C)[C@@]1(O)C(=O)CO [beclomethasone]
thymus weight (Sprague-Dawley rats; 2 mg/sponge): significantly decreased
thymus weight (Sprague-Dawley rats; 10 mg/sponge): significantly decreased
plasma corticosterone concentration (Sprague-Dawley rats; 10 mg/sponge, vs vehicle control): significantly decreased
plasma corticosterone levels (Male Balb/C mice; 1 mg/kg intranasally, mice): significantly suppressed
